{
  "source": "patent US10577322B2",
  "about": "“5-methoxytryptophan and its derivatives and uses thereof” (National Health Research Institutes, priority 2015, dated 2020)",
  "key": {"IL-6 promoter": {"test_system": "IL-6 promoter", "assay": "IL-6 promoter-luciferase assay in RAW264.7 cells", "type": "cell-based, mouse", "settings": "LPS 8 h", "protocol": "RAW264.7 macrophages were cotransfected with COX-2 promoter-luciferase, IL-6 promoter-luciferase constructs as previously described (Lee, G. L., et al.) or p5xNF-κB-luciferase (Stratagene) and pcDNA3.1-β-galactosidase plasmids using FuGENE 6 (Roche). After overnight transfection, the cells were incubated with or without LPS in the presence or absence of 5-MTP for 8 h. After treatment, cells were lysed, and luciferase activity was measured using an assay kit (Promega). β-galactosidase activity was used to normalize the data.\nMoreover, RAW264.7 cells and IL-6 promoter-luciferase plasmid transfected RAW264.7 cells were pretreated with different concentrations of 5-MTP for 30 min, followed by LPS stimulation for 8 h. IL-6 promoter activity was measured by luciferase assay. IL-6 level in culture supernatants was measured by ELISA."}, "[1]": {"test_system": "LPS-induced cytokine production", "type": "cell-based, mouse", "protocol": "Mouse RAW264.7 macrophages were from the American Type Culture Collection and cultured in DMEM containing 10% FBS. Cells were typically pre-incubated with or without 5-MTP (Sigma-Aldrich) for 30 min before LPS treatment, unless specified otherwise. The duration of LPS (100 ng/ml) treatment varied depending on the experiment.\n(§1) Cytokine levels in the culture supernatants and serum were determined in microtiter plates (96-well) by a specific sandwich ELISA (Biosource) as previously described (Wu, J. Y. & Kuo, C. C. Pivotal role of ADP-ribosylation factor 6 in Toll-like receptor 9-mediated immune signaling. J Biol Chem 287, 4323-4334 (2012)) (Lee, G. L., et al. TLR 2 induces vascular smooth muscle cell migration through cAMP response element-binding protein-mediated interleukin-6 production. Arterioscler Thromb Vasc Biol 32, 2751-2760 (2012); hereinafter, Lee, G. L., et al.)."}, "[2]": {"test_system": "proinflammatory cytokines", "assay": "Proinflammatory cytokines level in serum of LPS-treated mice (ELISA)", "type": "in vivo", "protocol": "C57BL/6 mice (6-8 wks old) were treated intraperitoneally with saline or with different concentrations of 5-MTP (23.4 or 100 mg/kg) for 30 min before intraperitoneal administration of LPS (60 mg/kg). Animals were monitored for survival and other clinical signs including ruffled fur, lethargy, diarrhea, and body weight loss. Some animals were sacrificed at different times after LPS injection. Blood samples, peritoneal exudates, lungs, and spleens were collected. All mouse experiments were approved by the institutional Animal Care and Use Committee, National Health Research Institutes.\nas §1\nMice were injected intraperitoneally with or without different concentrations of 5-MTP or saline for 30 min, followed by LPS administration for the indicated time. Proinflammatory cytokines level in serum was measured by ELISA. (n=6 per group)."}, "[3]": {"assay": "Serum 5-MTP level in mice after 5-MTP administration", "type": "in vivo", "settings": "5-MTP 23.4 mg/kg", "protocol": "To ensure that 5-MTP administration increases serum 5-MTP, we analyzed 5-MTP level at 24 h and 72 h after 5-MTP infusion. Serum 5-MTP concentrations in mice treated with saline or LPS with or without 5-MTP (23.4 mg/kg) at 24 h and 72 h. The error bars denote mean±SD (n=3)."}, "neutrophil infiltration": {"test_system": "neutrophil infiltration", "assay": "Neutrophil infiltration in lung tissues (Ly6G staining)", "type": "in vivo, mice", "protocol": "(§2) Prior to immunohistochemical detection of COX-2, iNOS, Ly6g, or cleaved caspase-3 in lung sections, sections were deparaffinized with xylene, progressively rehydrated through graded alcohols. Antigen sites were retrieved by heating the sections on slides in pH 8 EDTA antigen. retrieval (Trilogy; Cell Marque Corporation) in electric pressure cooker for 15 min. […] All antibodies described hereafter were diluted in blocking buffer. Sections were incubated at room temperature for 2 h with primary antibody and then washed in PBST. The sections were incubated with primary antibody amplifier quanta (Thermo) for 10 minutes. After rinsing with PBST, the sections were incubated with HRP Polymer Quanto (Thermo) for 10 minutes and washed three times with PBST. COX-2, iNOS, Ly6g and cleaved caspase-3 were visualized by the addition of DAB Quanto Chromogen: Substrate for 3 minutes. Tissues were also counterstained with hematoxylin.\nThirty min after saline or 5-MTP administration, mice were injected intraperitoneally with LPS at 4 h, 12 h, 16 h and 24 h. Paraffin-embedded lung tissue specimens were subjected to immunohistochemical Ly6G staining for determination of neutrophil infiltration in lung tissues. The results are shown in FIG. 8A, in which scale bars represent 100 μm."}, "caspase-3": {"test_system": "caspase-3", "assay": "Cleaved caspase-3 immunohistochemistry in lung tissues", "type": "in vivo, mice", "settings": "LPS 60 mg/kg, 12 and 16 h", "protocol": "as §2\nParaffin-embedded sections were prepared from lung tissues of mice treated with saline or LPS (60 mg/kg) with or without various concentrations of 5-MTP for 12 or 16 h. Activated caspase-3 level in lung tissues was determined by immunohistochemical staining of cleaved caspase-3. The results are shown in FIG. 9A, in which scale bars represent 200 μm."}, "p38 MAPK": {"test_system": "p38 MAPK", "assay": "LPS-induced p38 MAPK phosphorylation in RAW264.7 cells (immunoblot)", "type": "cell-based, mouse", "settings": "LPS 4 h", "protocol": "Cellular protein were resolved by 5% to 20% SDS-PAGE and transferred to nitrocellulose membranes and blotted with specific antibodies as previously described (Lee, G. L., et al.).\nAfter pretreating RAW264.7 cells with different concentrations of 5-MTP for 30 min, cells were stimulated with LPS for 4 h. Cell lysates were immunoblotted with antibodies for p38, phospho-p38 (p-p38), ERK½, phospho-ERK½ (p-ERK½) or β-actin. […] Activation of p38 MAPK in macrophages is required for TLR-induced NF-κB activation, which is one of the key factors affecting TLR-induced cytokine production. Thus, we evaluated the effect of 5-MTP on LPS-induced. NF-κB activation."}, "vascular calcification": {"test_system": "vascular calcification", "assay": "High fat diet-induced arterial calcification in ApoE-deficient mice (von Kossa)", "type": "in vivo", "settings": "23.4 mg/kg 3 times a week i.p., 20 weeks", "protocol": "ApoE-deficient mice were fed with on a Western high fat diet containing 1.25% cholesterol and 21% fat (Research Diets) starting at 6 weeks of age. The mice were simultaneously treated with vehicle (PBS) or 5-MTP (23.4 mg/kg body weight, 3 times a week) by intraperitoneal injection. After 20 weeks, the aortic trees were dissected and lesions examined in the aortic arch and its branches. Vascular calcifications in the aortic root were evaluated by von Kossa staining.\nVascular smooth muscle cell (VSMC) calcification is the major phenomenon to induce atherosclerotic vascular calcification in cardiovascular disease (CVD). We next investigated the effect of 5-MTP derivatives on VSMC calcification."}, "[4]": {"settings": "LPS-treated mice, dose- and time-dependent"}},
  "data": [
    {"smiles": "COc1ccc2[nH]cc(C[C@H](N)C(=O)O)c2c1", "note": "[5-MTP, 5-methoxytryptophan]", "values": [
      {"measurement": "LPS-induced IL-6 promoter activity", "setting": "IL-6 promoter", "value": "inhibited"},
      {"measurement": "Suppressive activity in LPS-induced cytokine production", "setting": "[1]", "value": "+"},
      {"measurement": "all the tested serum cytokines", "setting": "[2]; 5-MTP at 23.4 mg/kg", "value": "significantly reduced"},
      {"measurement": "all the tested serum cytokines", "setting": "[2]; 5-MTP at 100 mg/kg", "value": "reduced the cytokines to the basal level"},
      {"measurement": "rise of IL-12", "setting": "[2]; LPS-treated mice, data not shown", "value": "suppressed the rise"},
      {"measurement": "blood level of IL-1β", "setting": "[2]; [4]", "value": "abated the elevation"},
      {"measurement": "blood level of IL-6", "setting": "[2]; [4]", "value": "abated the elevation"},
      {"measurement": "blood level of INF-κ", "setting": "[2]; [4]", "value": "abated the elevation"},
      {"measurement": "blood level of TNF-α", "setting": "[2]; [4]", "value": "abated the elevation"},
      {"measurement": "serum 5-MTP level at 24 h after administration", "setting": "[3]", "value": "several-fold over the basal level"},
      {"measurement": "serum 5-MTP level at 72 h", "setting": "[3]", "value": "returned to basal level"},
      {"measurement": "neutrophil infiltration in lung tissues", "setting": "neutrophil infiltration; 5-MTP at 100 mg/kg", "value": "reduced the infiltration almost to the basal level"},
      {"measurement": "neutrophil infiltration in lung tissues", "setting": "neutrophil infiltration; LPS, 4 h, 12 h, 16 h and 24 h", "value": "dose-dependently reduced"},
      {"measurement": "cleaved caspase-3 in lung tissues", "setting": "caspase-3", "value": "reduced by 5-MTP"},
      {"measurement": "phosphorylation of p38 MAPK", "setting": "p38 MAPK", "value": "dose-dependently blocked"},
      {"measurement": "high fat diet-induced vascular calcification", "setting": "vascular calcification", "value": "prevented"}
    ]}
  ]
}
